For 18 compounds, remaining activity results are on record in patent publication US12209079B2 (GENERAL INCORPORATED ASSOCIATION PHARMA VALLEY PROJECT …, priority 2017, dated 2025).

Assay [1] addresses rhIDO (recombinant human IDO) (Homo sapiens, UniProt P14902). In words: Enzyme assay using rhIDO (rate of kynurenine production). Particulars: 2 h, read-out: rhIDO-mediated kynurenine production; for remaining activity at 10 µM: final concentration of the compound 10 μM, rate relative to reaction without compound. Format: biochemical. Put shortly:
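rhIDO preincubated with compound 10 min at 37 °C in phosphate buffer with ascorbate, methylene blue and catalase; started with 2 mM tryptophan solution (stock) and run 120 min at 37 °C. Stopped with TCA and heated to convert N-formylkynurenine; kynurenine read at 490 nm after p-dimethylbenzaldehyde, background-subtracted, as % of no-compound control.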

Assay [2] deals with rhTDO (recombinant human TDO) (Homo sapiens, UniProt P48775). In words: Enzyme assay using rhTDO (rate of kynurenine production). The class given is biochemical. Particulars: 2 h; final concentration of the compound 10 μM; rate relative to reaction without compound; read-out: rhTDO-mediated kynurenine production. In outline: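 Kynurenine output, as percent of untreated control after background subtraction, read at 490 nm with p-dimethylbenzaldehyde following TCA quench and 15 min heating at 50 °C. Reaction: rhTDO with compound, 10 min preincubation then 120 min at 37 °C, started by 20 mM tryptophan stock, in phosphate/ascorbate/methylene blue/catalase.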
Chain of rhTDO (recombinant human TDO) (P48775 whole entry): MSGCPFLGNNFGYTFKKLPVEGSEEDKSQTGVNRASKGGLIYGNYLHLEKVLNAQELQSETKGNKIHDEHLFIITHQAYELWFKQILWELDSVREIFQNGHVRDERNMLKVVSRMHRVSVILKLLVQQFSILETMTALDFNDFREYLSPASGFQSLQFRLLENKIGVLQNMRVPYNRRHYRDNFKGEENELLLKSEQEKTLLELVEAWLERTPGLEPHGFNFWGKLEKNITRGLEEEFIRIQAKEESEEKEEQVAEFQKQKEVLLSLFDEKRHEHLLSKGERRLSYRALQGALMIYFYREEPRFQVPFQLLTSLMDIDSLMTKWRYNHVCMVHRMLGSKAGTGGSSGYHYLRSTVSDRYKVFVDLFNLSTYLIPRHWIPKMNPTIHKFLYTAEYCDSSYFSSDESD

The target of assay [3] is T1, IDO in A431 cells (Homo sapiens, UniProt P14902).
T1 construct: endogenous in cells; host or cells: A431 cells, IFN-γ stimulated
T1 sequence (P14902 whole entry): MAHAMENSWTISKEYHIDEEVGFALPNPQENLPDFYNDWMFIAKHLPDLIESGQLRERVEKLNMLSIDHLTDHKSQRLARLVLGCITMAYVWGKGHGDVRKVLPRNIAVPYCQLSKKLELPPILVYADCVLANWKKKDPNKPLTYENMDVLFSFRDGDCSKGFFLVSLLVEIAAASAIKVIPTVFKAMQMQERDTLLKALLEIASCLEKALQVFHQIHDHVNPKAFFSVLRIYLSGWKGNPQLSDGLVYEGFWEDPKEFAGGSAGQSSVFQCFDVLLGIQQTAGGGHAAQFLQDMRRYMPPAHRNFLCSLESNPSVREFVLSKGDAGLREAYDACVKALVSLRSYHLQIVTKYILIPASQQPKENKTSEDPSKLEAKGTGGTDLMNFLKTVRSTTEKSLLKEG
In words: IDO cell-based assay, kynurenine production in IFN-γ stimulated A431 cells. Particulars: A-431, 24 h; final concentration of the compound 10 μM; rate relative to culture without compound. Put shortly:
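A431 cells were cultured 24 h, then preincubated 1 h with compound in medium containing 178 μM L-tryptophan, and stimulated with IFN-γ (diluted to 100 ng/mL before addition) for 24 h. Kynurenine was measured by p-dimethylbenzaldehyde absorbance at 460 nm, background-subtracted, and expressed as % production versus no-compound control.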

Assay [4] concerns the target T2, TDO in A172 cells (Homo sapiens, UniProt P48775).
T2 construct: endogenous in cells; host or cells: A172 cells
In words: TDO cell-based assay, kynurenine production in A172 cells. Particulars: A 172; final concentration of the compound 10 μM; rate relative to culture without compound. Put shortly:
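A172 cells were preincubated with compound for 1 h, then given L-tryptophan (final 524 μM) for 24 h at 37 °C. Kynurenine was read at 460 nm after p-dimethylbenzaldehyde/TCA reagent, background-subtracted, and expressed as % of no-compound production.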

Counter-ions that a name gives are not always drawn.

T2 sequence (P48775 whole entry): as the sequence (P48775 whole entry) above
Chain of rhIDO (recombinant human IDO) (P14902 whole entry): as the sequence (P14902 whole entry) above

Regarding `N=C(N)SCc1ccccc1CC(=O)NCCc1ccc(Cl)cc1` [Compound 68, 2-(2-((4-Chlorophenethyl)amino)-2-oxoethyl)benzyl carbamimidothioate hydrobromide], the remaining activity at 10 µM in assay [1] turned out to be 82%; in assay [2], 31%; in assay [3] it was 101%; in assay [4], 81%.
For `N=C(N)SCc1ccccc1CC(=O)NCCC1CCCCC1` [Compound 69, 2-(2-((2-Cyclohexylethyl)amino)-2-oxoethyl)benzyl carbamimidothioate hydrobromide], in that order: 76%, 60%, 101% and 73%.
`N=C(N)SCc1ccccc1CC(=O)NCCc1ccc(Cl)c(Cl)c1` [Compound 70, 2-(2-((3,4-Dichlorophenethyl)amino)-2-oxoethyl)benzyl carbamimidothioate hydrobromide]: the remaining activity at 10 µM in assay [1] came out at 72%; in assay [2], 35%; in assay [3], 98%; in assay [4], 96%.
Consider `N=C(N)SCc1ccccc1CC(=O)NCC1CC1` [Compound 71, 2-(2-((Cyclopropylmethyl)amino)-2-oxoethyl)benzyl carbamimidothioate hydrobromide], for which the remaining activity at 10 µM in assay [1] amounted to 87%; in assay [2], 67%; in assay [3] it was 96%; in assay [4] it was 77%.
For `N=C(N)SCc1ccccc1CC(=O)NCCCCc1ccccc1` [Compound 72, 2-(2-Oxo-2-((4-phenylbutyl)amino)ethyl)benzyl carbamimidothioate hydrobromide], in that order: 70%, 47%, 69% and 68%.
Regarding `Clc1cc(CSC2=NCN(CC3CC3)CN2)c(CSC2=NCN(CC3CC3)CN2)cc1Cl` [Compound 73, 6,6′-(((4,5-Dichloro-1,2-phenylene)bis(methylene))bis(sulfanediyl))bis(3-(cyclopropylmethyl)-1,2,3,4-tetrahydro-1,3,5-triazine)], in assay [1] (final concentration of the compound 3 μM (data with *)), the remaining activity at 3 µM came to 29%. For the same compound, the remaining activity at 10 µM in assay [2] is 4%; in assay [3], 4%; in assay [4] it was -3%.
With `N=C(N)SCc1cc(Br)ccc1C(=O)NCC1CCCCC1` [Compound 74, 5-Bromo-2-((cyclohexylmethyl)carbamoyl)benzyl carbamimidothioate hydrobromide], the remaining activity at 10 µM was found to be 70% in assay [1], 29% in assay [2], 75% in assay [3] and 47% in assay [4].
For `Brc1ccc(CSC2=NCN(CC3CC3)CN2)c(CSC2=NCN(CC3CC3)CN2)c1` [Compound 75, 6,6′-(((4-Bromo-1,2-phenylene)bis(methylene))bis(sulfanediyl))bis(3-(cyclopropylmethyl)-1,2,3,4-tetrahydro-1,3,5-triazine)], in that order: 35%, 15%, 9% and 3%.
On to `CNC(=O)c1ccc(C#N)cc1CSC(=N)N` [Compound 77, 5-Cyano-2-(methylcarbamoyl)benzyl carbamimidothioate hydrobromide], for which the remaining activity at 10 µM turned out to be 74% in assay [1], 101% in assay [2], 103% in assay [3] and 89% in assay [4].
Take `N=C(N)SCc1cc(Br)ccc1C(=O)NCCc1ccc(Cl)cc1` [Compound 78, 5-Bromo-2-((4-chlorophenethyl)carbamoyl)benzyl carbamimidothioate hydrobromide]: the remaining activity at 10 µM in assay [1] came to 74%; in assay [2] it was 25%; in assay [3], 112%; in assay [4] it was 56%.
`CNC(=O)Cc1ccccc1CS/C(N)=N/c1ccc(Br)cc1` [Compound 79, 2-(2-(Methylamino)-2-oxoethyl)benzyl (E)-N′-(4-bromophenyl)carbamimidothioate hydrobromide]: the remaining activity at 10 µM in assay [1] amounted to 90%; in assay [2], 34%; in assay [3], 60%; in assay [4] it was 38%.
On to `CNC(=O)Cc1ccccc1CS/C(N)=N/c1ccc(F)c(Cl)c1` [Compound 80, 2-(2-(Methylamino)-2-oxoethyl)benzyl (E)-N′-(3-chloro-4-fluorophenyl)carbamimidothioate hydrobromide], for which the remaining activity at 10 µM turned out to be 97% in assay [1], 38% in assay [2], 66% in assay [3] and 45% in assay [4].
For `CNC(=O)c1ccc(C#N)cc1CS/C(N)=N/c1ccc(Br)cc1` [Compound 81, 5-Cyano-2-(methylcarbamoyl)benzyl (E)-N′-(4-bromophenyl)carbamimidothioate hydrobromide], in that order: 81%, 121%, 78% and 89%.
On the same counts, the results for `N=C(N)SCc1cc(Br)ccc1C(=O)NCc1ccc(Cl)cc1` [Compound 82, 5-Bromo-2-((4-chlorobenzyl)carbamoyl)benzyl carbamimidothioate hydrobromide] are 89%, 27%, 99% and 37%.
As to `N/C(=N\c1ccc(F)c(Cl)c1)SCc1cc(Br)ccc1C(=O)NCc1ccc(Cl)cc1` [Compound 83, 5-Bromo-2-((4-chlorobenzyl)carbamoyl)benzyl (E)-N′-(3-chloro-4-fluorophenyl)carbamimidothioate hydrobromide], the remaining activity at 10 µM in assay [1] was found to be 80%; in assay [2], 59%; in assay [3], 75%; in assay [4], 21%.
For `N/C(=N\c1ccc(Br)cc1)SCc1cc(Br)ccc1C(=O)NCc1ccc(Cl)cc1` [Compound 84, 5-Bromo-2-((4-chlorobenzyl)carbamoyl)benzyl (E)-N′-(4-bromophenyl)carbamimidothioate hydrobromide], in that order: 84%, 65%, 56% and 18%.
On to `N#Cc1ccc(CNC(=O)c2ccc(Br)cc2CS/C(N)=N/c2ccc(F)c(Cl)c2)cc1` [Compound 85, 5-Bromo-2-((4-cyanobenzyl)carbamoyl)benzyl (E)-N′-(3-chloro-4-fluorophenyl)carbamimidothioate hydrobromide], for which the remaining activity at 10 µM worked out at 71% in assay [1], 50% in assay [2], 56% in assay [3] and 16% in assay [4].
For `N=C(N)SCc1cc(Br)ccc1C(=O)NCc1ccc(F)cc1` [Compound 86, 5-Bromo-2-((4-fluorobenzyl)carbamoyl)benzyl carbamimidothioate hydrobromide], in that order: 92%, 46%, 109% and 36%.
